Two molecules from paper PMC7399811, “Analogues of a Cyclic Antimicrobial Peptide with a Flexible Linker Show Promising Activity against Pseudomonas aeruginosa and Staphylococcus aureus” (Antibiotics, 2020) can be followed below.

Series [1] is described as follows: RP-HPLC retention time as indicator of hydrophobicity/amphipathicity. Type of series: physicochemical. The settings on record: chromatographic, Waters Symmetry C18 4.6 × 250 mm, used as measure of hydrophobicity/amphipathicity (Table S1). As to the method:
Cleavage was performed on half or all of the resin with a TFA:H2O:TIS (95:2.5:2.5) solution for 2 h. The cleavage solution was collected and concentrated with a gentle stream of N2, down to about 300 µL. The peptide was precipitated and washed with 4 mL cold (−20 °C) diethyl ether, 3 times. The residual ether was left overnight to evaporate. Next, the crude product was dissolved in 90% water and 10% ACN and freeze-dried, ready for analysis and purification. Peptides were identified using Matrix Assisted Laser Desorption Ionization time of flight mass spectroscopy (MALDI–ToF MS). To this end, 1 µL peptide solution and 1 µL α-cyano4-hydroxycinnamic acid matrix (10 mg/ mL in ACN:H2O:TFA, 50:47.5:2.5) were spotted onto a target plate, followed by detection using a MicroflexTM. FlexControl software was used to obtain the spectra and the data were processed using flexAnalysis [Bruker Daltonik GmbH]. RP–HPLC was used to assess peptide purity. The system consisted of a WatersTM In-Line Degasser AF, a WatersTM 600 pump, a WatersTM 2996 Photodiode Array Detector, and a WatersTM Symmetry C18, 4.6 × 250 mm, […] column. The data were processed using Empower3 software. Purity was ≥95% for all tested peptide. Peptide purification was done by dissolving the peptides in minimal […], and 300–500 µL was injected into the HPLC system to achieve separation.

Another series has as its system P. aeruginosa ATCC 27853. The class given is cell-based. As to the method:
(§1) Bacterial strains (E. coli ATCC 29522, S. aureus ATCC 29213, A. baumannii ATCC 19606, and P. aeruginosa ATCC 27853) were grown overnight on LB agar plates at 37 °C. Overnight cultures were prepared by inoculation of two to three colonies in 10 mL non-cation adjusted Mueller–Hinton broth (MHB) media (BD BBLTM Beef extract powder, BD BactoTMCasamino acids, and DIFCO soluble starch). Bacterial inoculum for MIC testing was prepared as balanced cultures, as previously described. The bacterial suspension was adjusted using MHB to an OD600 of 0.1, approximately 1·10^8 colony forming units (CFU/mL), and then diluted 1:200 in MHB, to give a final bacterial suspension of 5·10^5 CFU/mL, as described by Wiegand et al.. […] For MIC determination, all peptides were measured in triplicates using the protocol described by Wiegand et al. for “antimicrobial peptides that require the presence of acetic acid/BSA”. In brief, 20 µL peptide solution and gentamycin solution was transferred to column 1 of 96-well plates. Next, 10 µL 0.2% BSA; 0.01% acetic acid MHB media was transferred to column 2–11. Subsequently, peptides were serially diluted two-fold in the MIC plate and 90 µL bacterial suspension was transferred to all wells in column 1–11. Next, 100 µL bacterial suspension was transferred to column 12 D–F (growth control) and 100 µL media to column 12 A–C (sterility control). After an overnight incubation at 37 °C of the MIC plates, MIC values were determined as the lowest concentration at which there was no visible bacterial growth. For the inoculum control, 10 µL of solution from a positive-growth control well from each bacterial strain was dissolved in 990 µL phosphate-buffered saline (PBS) (1:100 dilution) in an Eppendorf tube. This solution was vortexed and 100 µL transferred to another Eppendorf tube containing 900 µL PBS (1:10 dilution) and vortexed. Then, 100 µL of each dilution was spread onto the MHB media plates, in triplicates, to achieve a CFU dilution of 1:1000 and 1:10,000, respectively. The plates were incubated overnight at 37 °C. The colonies were counted and 50 colonies were expected on the 1:10,000 plates and 500 on the 1:1000 plates.

The next series concerns S. aureus ATCC 29213. The class given is cell-based. As to the method: as §1
Another series has as its system E. coli ATCC 29522. Type of series: cell-based. As to conditions: ATCC 29522. As to the method: as §1
The test system of a further series is A. baumannii ATCC 19606. The class given is cell-based. As to conditions: ATCC 19606. As to the method:
as §1

Another series has as its system red blood cells. The settings on record: at 150 µM peptide; 0.5% v/v RBC in PBS, 1 h 37 °C, absorbance 414 nm, normalized to melittin (100%) and PBS (0%).
Series [2] concerns S. aureus, P. aeruginosa, E. coli, A. baumannii. Kind of series: Minimum inhibitory concentration, statements over several strains. Type of series: cell-based. The settings on record: MIC against S. aureus and P. aeruginosa. As to the method: Bacterial strains (E. coli ATCC 29522, S. aureus ATCC 29213, A. baumannii ATCC 19606, and P. aeruginosa ATCC 27853) were grown overnight on LB agar plates at 37 °C. Overnight cultures were prepared by inoculation of two to three colonies in 10 mL non-cation adjusted Mueller–Hinton broth (MHB) media (BD BBLTM Beef extract powder, BD BactoTMCasamino acids, and DIFCO soluble starch). Bacterial inoculum for MIC testing was prepared as balanced cultures, as previously described. The bacterial suspension was adjusted using MHB to an OD600 of 0.1, approximately 1·10^8 colony forming units (CFU/mL), and then diluted 1:200 in MHB, to give a final bacterial suspension of 5·10^5 CFU/mL, as described by Wiegand et al.. […] For MIC determination, all peptides were measured in triplicates using the protocol described by Wiegand et al. for “antimicrobial peptides that require the presence of acetic acid/BSA”. In brief, 20 µL peptide solution and gentamycin solution was transferred to column 1 of 96-well plates. Next, 10 µL 0.2% BSA; 0.01% acetic acid MHB media was transferred to column 2–11. Subsequently, peptides were serially diluted two-fold in the MIC plate and 90 µL bacterial suspension was transferred to all wells in column 1–11. […] The colonies were counted and 50 colonies were expected on the 1:10,000 plates and 500 on the 1:1000 plates.

Each structure is given as a SMILES string. Values after ≈ are worked out from the molar mass of the structure shown. Square brackets hold non-standard residues; d marks the D form. Peptide text beside a SMILES is read from it. Bip = N[C@@H](Cc1ccc(-c2ccccc2)cc1)C(=O)O; 2Nal = N[C@@H](Cc1ccc2ccccc2c1)C(=O)O; Dab = NCC[C@H](N)C(=O)O; AEEA = NCCOCCOCC(=O)O

Procedure for red blood cells: A total of 150 µL of 5 µM melittin was added to the positive control wells 1-6H of a V-shaped 96-well polypropylene plate and left overnight. The melittin solution was removed and the positive control wells were washed 3 times with 150 µL PBS. Afterwards, a 2.5 µM melittin solution was added to the positive control wells. For the assay, 0-negative blood in EDTA was used. Blood was washed by mixing 3 mL of PBS with 1 mL of whole blood, and centrifuged for 8 min at 3000 rpm. The supernatant was discarded and 4 mL of PBS added, mixed gently, and centrifuged. This wash cycle was repeated but the last centrifuge velocity was raised to 4000 rpm. Next, 40 µL red blood cells (RBC) was suspended in 8 mL of PBS to achieve an RBC suspension of 0.5% volume/volume (v/v). Peptide solutions were prepared at 600 µM, two times the highest concentration. A total of 150 µL peptide solution was transferred to row A. Next, 75 µL PBS was transferred to wells B1 to G12, as well as H7-12 (negative control), and the peptides were serially diluted two-fold. Then, 75 µL RBC suspension was added to all wells and the plate was covered with a Microseal® film and incubated for 1 h at 37 °C. Next, the plate was centrifuged for 10 min at 4000 rpm. Subsequently, 60 µL supernatant was transferred into the corresponding wells of a clear, polystyrene, flat-bottomed 96-well ELISA plate. The absorbance was read at λ = 414 nm with a VersaMaxTM Tunable Microplate Reader and the data were evaluated on Softmax® Pro. The results were normalized with respect to the average positive (100%) and negative (0%) controls, as described previously [43].

On to `N=C(N)NCCC[C@@H]1NC(=O)[C@H](Cc2ccc3ccccc3c2)NC(=O)COCCOCCNC(=O)[C@H](Cc2ccc(-c3ccccc3)cc2)NC(=O)[C@H](CCN)NC(=O)[C@H](CCN)NC(=O)[C@H](Cc2ccc3ccccc3c2)NC(=O)[C@H](CCN)NC(=O)[C@H](CC(N)=O)NC1=O` [compound 13] (cyclo([Dab][2Nal][Dab][Dab][Bip][AEEA][2Nal]RN)), for which the “HPLC retention time (RT)” value in series [1] was determined as 17.9 min. Further, in the series with P. aeruginosa ATCC 27853, the “Minimum inhibitory concentration PA” value worked out at 4 µg/mL (≈ 3 µM). In addition, in the series on S. aureus ATCC 29213, the “Minimum inhibitory concentration SA” value is listed as 1 µg/mL (≈ 0.75 µM). The “Minimum inhibitory concentration EC” value in the series with E. coli ATCC 29522 is recorded as 32 µg/mL (≈ 24 µM). For the same molecule, the “Minimum inhibitory concentration AB” value with A. baumannii ATCC 19606 is given as 64 µg/mL (≈ 48 µM). In the series on red blood cells, the “percent hemolytic activity against red blood cells (%H)” value worked out at 80%.
With `NCC[C@@H]1NC(=O)[C@H](Cc2ccc3ccccc3c2)NC(=O)COCCOCCNC(=O)[C@H](Cc2ccc(-c3ccccc3)cc2)NC(=O)[C@H](CCN)NC(=O)[C@H](CCN)NC(=O)[C@H](Cc2ccc3ccccc3c2)NC(=O)[C@H](CCN)NC(=O)[C@H](CC(N)=O)NC1=O` [compound 9] (cyclo([Dab][2Nal][Dab][Dab][Bip][AEEA][2Nal][Dab]N)), the “HPLC retention time (RT)” value in series [1] was determined as 17.8 min. The “Minimum inhibitory concentration PA” value in the series on P. aeruginosa ATCC 27853 was 4 µg/mL (≈ 3.13 µM). Also, the “Minimum inhibitory concentration SA” value in the series with S. aureus ATCC 29213 amounted to 8 µg/mL (≈ 6.26 µM). Moreover, in the series with E. coli ATCC 29522, the “Minimum inhibitory concentration EC” value is given as more than 64 µg/mL. For the same molecule, the “Minimum inhibitory concentration AB” value in the series on A. baumannii ATCC 19606 turned out to be 32 µg/mL (≈ 25 µM). For the same molecule, in series [2], the “increase in activity compared to BSI-9” value was 8 fold. Also, the “percent hemolytic activity against red blood cells (%H)” value in the series on red blood cells was 76%.
